In ChEMBL document CHEMBL1201862, “PubChem BioAssay data set” (2004):
Values belong to the molecule of their own block, whether it stands above or below them. The source made the active and inactive calls.

Experiments:
[1] = NIH-3T3 fibroblast cytotoxicity, dose response, cytotoxicity control, cell-based, fluorescence, Alamar Blue, secondary assay (AID 2327); format: functional;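 also: NIH-3T3 mouse fibroblasts cultured with fluconazole at 8 µg/mL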
cells [2] = format: functional, cell-based
[3] = fluconazole-exposed Candida albicans growth modulators – fluorescence, retest, confirmation (AID 2467); format: functional, cell-based
[4] = Trypanosoma cruzi growth suppression in host cells – NIH3T3 host cells, beta-gal luminescence, confirmation (AID 2044); format: functional, cell-based;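 also: intracellular parasites grown in NIH/3T3 mouse fibroblasts as host cells; luminescent beta-galactosidase reporter signal from transgenic T. cruzi replicating inside host cells; inhibitors lower the luminescence signal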
cells [5] = format: functional, cell-based; remark: listed apart in the source
[6] = NIH3T3 cell viability loss – ATP luminescence, mouse fibroblasts, counter-screen, dose response (AID 2010); format: functional, cell-based;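 also: cells exposed to compound for about 90 hours before reading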
[7] = HEK-293T viability loss after treatment – luminescence, T-cell screen hits, cytotoxicity control for TCR NF-kB inhibitor project, dose response (AID 489026); format: functional, cell-based;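 also: cells exposed to compound about 14 hours before the viability readout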
[8] = target: Heat shock protein HSP 90-alpha (Homo sapiens, UniProt P07900); format: functional, organism-based
INS1 = assay: INS-1E survival protection against cytokine death – cell-based, luminescence, retest, dose response (AID 449756); format: functional; conditions: Rattus norvegicus;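 also: cell death triggered by IL-1 beta plus TNF-alpha plus IFN-gamma mixture; protective hits raise ATP signal compared with cytokine alone wells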
Cysteine protease ATG4B = Cysteine protease ATG4B (Homo sapiens, UniProt Q9Y4P1); format: functional;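 also: Fluorescence-based dose-response confirmation assay measuring inhibition of ATG4B activity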
Chain of Cysteine protease ATG4B (Q9Y4P1 whole entry): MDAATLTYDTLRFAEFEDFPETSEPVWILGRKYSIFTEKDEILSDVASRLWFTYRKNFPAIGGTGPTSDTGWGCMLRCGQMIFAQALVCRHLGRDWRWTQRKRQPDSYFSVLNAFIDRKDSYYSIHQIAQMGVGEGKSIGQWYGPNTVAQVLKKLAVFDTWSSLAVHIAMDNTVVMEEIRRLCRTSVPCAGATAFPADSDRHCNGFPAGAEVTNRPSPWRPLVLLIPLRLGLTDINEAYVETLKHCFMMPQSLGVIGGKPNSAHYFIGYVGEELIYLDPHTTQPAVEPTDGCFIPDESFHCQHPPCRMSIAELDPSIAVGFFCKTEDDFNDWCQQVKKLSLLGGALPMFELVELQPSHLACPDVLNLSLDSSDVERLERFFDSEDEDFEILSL

Phospholipase A2 = Phospholipase A2 (Homo sapiens, UniProt P04054); format: functional;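 also: confirmatory dose-response counterscreen on phospholipase A2, testing hits that came from an ultra-high-throughput screen for ATG4B inhibitors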
Chain of Phospholipase A2 (P04054 whole entry): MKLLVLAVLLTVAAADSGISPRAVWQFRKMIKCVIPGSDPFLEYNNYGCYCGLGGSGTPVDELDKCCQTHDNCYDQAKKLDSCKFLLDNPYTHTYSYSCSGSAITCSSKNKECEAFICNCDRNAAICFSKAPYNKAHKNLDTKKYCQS

[9] = target: Melanin-concentrating hormone receptor 1 (Homo sapiens, UniProt Q99705); assay: Late-stage fluorescence-based counterscreen for antagonists of the G-protein coupled receptor 7 (GPR7): cell-based dose response assay to identify antagonists of the melanin-concentrating hormone receptor 1 (MCHR1) Set 6.; format: functional
Chain of Melanin-concentrating hormone receptor 1 (Q99705 whole entry): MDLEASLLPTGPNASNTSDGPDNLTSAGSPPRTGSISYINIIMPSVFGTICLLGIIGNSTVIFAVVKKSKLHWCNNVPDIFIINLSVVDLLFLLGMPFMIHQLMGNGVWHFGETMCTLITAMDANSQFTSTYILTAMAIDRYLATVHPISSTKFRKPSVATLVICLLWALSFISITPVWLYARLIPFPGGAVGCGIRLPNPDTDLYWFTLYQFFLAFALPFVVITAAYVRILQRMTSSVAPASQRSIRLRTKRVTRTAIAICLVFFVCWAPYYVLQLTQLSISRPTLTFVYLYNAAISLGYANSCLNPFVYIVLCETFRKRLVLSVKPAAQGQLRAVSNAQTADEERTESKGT

[10] = target: Neuropeptides B/W receptor type 1 (Homo sapiens, UniProt P48145); assay: human NPBW1 receptor blockade, IC50 – cell-based, fluorescence, dose response, set 6, late-stage follow-up (AID 588583); format: functional
Chain of Neuropeptides B/W receptor type 1 (P48145 whole entry): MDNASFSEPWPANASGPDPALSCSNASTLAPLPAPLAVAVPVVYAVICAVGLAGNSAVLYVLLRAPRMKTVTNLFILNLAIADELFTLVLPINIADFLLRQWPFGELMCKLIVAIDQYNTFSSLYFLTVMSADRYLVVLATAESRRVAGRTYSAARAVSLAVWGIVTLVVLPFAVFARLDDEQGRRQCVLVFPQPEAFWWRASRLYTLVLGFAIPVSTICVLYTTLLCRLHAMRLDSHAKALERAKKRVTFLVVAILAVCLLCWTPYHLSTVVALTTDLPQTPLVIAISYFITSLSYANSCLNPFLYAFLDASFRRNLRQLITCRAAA

- IC50 (Cysteine protease ATG4B): 10.5 µM (active)
- IC50 (Phospholipase A2): 9.64 µM (active)
Structure (SMILES): CCOC(=O)c1c(C)[nH]c(C(=O)COC(=O)COc2ccccc2C=O)c1C

- IC50 [9]: 0.326 µM (active)
- IC50 [10]: 0.326 µM (active)
Structure (SMILES): CC(C#N)(c1ccccc1)c1c(Br)cnn(Cc2cccc3ccccc23)c1=O (configuration not stated)

More lines, now with the values behind:

Structure (SMILES): CCC(=O)NC(c1cccs1)c1ccc2cccnc2c1O (configuration not stated)
- EC50 [1]: 3.59 µM (active)
- EC50 (cells [2]): 8.02 µM (active)
- EC50 [3]: 1.39 µM (active)
- EC50 [4]: 0.48 µM (active)
- EC50 (cells [5]): > 350 µM (not active)
- EC50 [6]: 1.48 µM (active)
- IC50 [7]: > 80 µM (inactive)
- AC50 [8]: 7.9 µM (active)
- AC50 (INS1): 0.86 µM (active)

Structure (SMILES): CCOC(=O)C(C)Sc1nc2ccccc2c(=O)n1CC1CCCCC1 (configuration not stated)
- IC50 (Cysteine protease ATG4B): 2.36 µM (active)
- IC50 (Phospholipase A2): 2.05 µM (active)

Structure (SMILES): COc1ccc(Oc2c(Cl)cnn(Cc3ccccc3Br)c2=O)cc1
- IC50 [9]: 0.506 µM (active)
- IC50 [10]: 0.506 µM (active)
